Counter-ions that a name gives are not always drawn.
Tests used:
[1] = test system: female human subjects with IBS (non-constipated); assay: Double-blind, placebo controlled clinical trials of alosetron for the treatment of IBS, response stratified by 5HTT genotype; type: in vivo; settings: for proportion of patients achieving response (relief of IBS symptoms): relief during six weeks of twelve week treatment
Text: FIG. 1 is a graph based on data collected from female patients enrolled in clinical trials of alosetron for the treatment of IBS. The study population was comprised of non-constipated individuals with IBS. The subjects were divided into 5HTT genotypes. Of the 219 subjects, 71 (32.4%) were del/del 5HTT, 75 (34.2%) were del/ins 5HTT and 73 (33.3%) were ins/ins 5HTT. […] “Response” was defined as relief of IBS symptoms (abdominal pain and discomfort) during six weeks of a twelve week treatment study. Two hundred and nineteen subjects, received either alosetron (102 subjects) or matched placebo (117 subjects). The proportion of patients achieving response following treatment with alosetron was 68% (21/31) for del/del 5HTT, 64% (21/33) for del/ins 5HTT and 58% (22/38) for ins/ins 5HTT. The proportion of patients achieving response following treatment with placebo was 58% (23/40) for del/del 5HTT, 38% (16/42) for del/ins 5HTT and 34% (12/35) for ins/ins 5HTT.
FIG. 2 compares, among 5HTT genotypes, the percentage of alosetron-treated subjects who reported constipation. Of the 102 alosetron treated subjects, the proportion of subjects reporting constipation was 13% (4/31) for del/del 5HTT, 30% (10/33) for del/ins 5HTT and 21% (8/38) for ins/ins 5HTT.
Genetic samples were obtained from 219 female human subjects enrolled in clinical trials of alosetron for the treatment of IBS. Using PCR technology as is known in the art, an insertion/deletion genetic marker was assayed in the 5-hydroxytryptamine transporter gene (5HTT gene). The alleles were labeled as “del” (deletion) or “ins” (insertion) resulting in three possible genotypes (del/del; del/ins or ins/ins).
The subjects' response to alosetron in the clinical trial setting was reviewed and correlated with genotype. In the double-blind, placebo controlled clinical trials, subjects received 12 weeks of treatment with either alosetron or a placebo. A favorable response to alosetron was when a subject reported relief of IBS symptoms during six weeks of the twelve week trial. The incidence of various other effects, including constipation, was also recorded.
The response of subjects to treatment with alosetron in the clinical trial was stratified according to genotype.
The occurrence of constipation during alosetron treatment in the clinical trial was stratified according to genotype. […] In del/del subjects (n=31), 4 (13%) reported constipation; in del/ins subjects (n=33), 10 (30%) reported constipation; and in ins/ins subjects (n=38), 8 (21)% reported constipation (FIG. 2).

[2] = test system: patients with Irritable Bowel Syndrome (IBS); settings: double-blind, placebo controlled studies (literature); cited from earlier work

proportion of subjects reporting constipation ([1]; del/del 5HTT genotype, alosetron-treated, 4/31 subjects): 13% | proportion of subjects reporting constipation ([1]; del/ins 5HTT genotype, alosetron-treated, 10/33 subjects): 30% | proportion of subjects reporting constipation ([1]; ins/ins 5HTT genotype, alosetron-treated, 8/38 subjects): 21% | proportion of subjects reporting constipation ([1]; total group of subjects receiving alosetron (n=102)): 21%
Structure (SMILES): Cc1[nH]cnc1CN1CCc2c(c3ccccc3n2C)C1=O [alosetron, Alosetron hydrochloride]
proportion of patients achieving response (relief of IBS symptoms) ([1]; del/del 5HTT genotype, 21/31 subjects): 68% | proportion of patients achieving response (relief of IBS symptoms) ([1]; del/ins 5HTT genotype, 21/33 subjects): 64% | relief of IBS symptoms compared with placebo ([1]; in each of the three 5HTT genotypes): more effective than placebo | proportion of patients achieving response (relief of IBS symptoms) ([1]; ins/ins 5HTT genotype, 22/38 subjects): 58% | effect on pain and bowel function in IBS patients [2]: reduce pain and improve bowel function

From patent US20030124566A1, “5-Hydroxytryptamine transporter gene polymorphisms” (priority 2000, published 2003)
